Laboratory results taken from patent US7772428B2, “Creatine hydroxycitric acids salts and methods for their production and use in individuals” (Northern Innovations and Formulations, priority 2005, dated 2010).
Read-outs that look alike come from different tables or passages of the source.

How the values were obtained:
[1] = Bioavailability; settings: stated in words, Example 1
[2] = Stability (in water and acidic solutions); settings: stated in words, Example 1
[3] = biological target: T1, ATP citrate lyase (Homo sapiens, UniProt P53396); settings: cited from earlier work
T1 sequence (P53396 1-1101): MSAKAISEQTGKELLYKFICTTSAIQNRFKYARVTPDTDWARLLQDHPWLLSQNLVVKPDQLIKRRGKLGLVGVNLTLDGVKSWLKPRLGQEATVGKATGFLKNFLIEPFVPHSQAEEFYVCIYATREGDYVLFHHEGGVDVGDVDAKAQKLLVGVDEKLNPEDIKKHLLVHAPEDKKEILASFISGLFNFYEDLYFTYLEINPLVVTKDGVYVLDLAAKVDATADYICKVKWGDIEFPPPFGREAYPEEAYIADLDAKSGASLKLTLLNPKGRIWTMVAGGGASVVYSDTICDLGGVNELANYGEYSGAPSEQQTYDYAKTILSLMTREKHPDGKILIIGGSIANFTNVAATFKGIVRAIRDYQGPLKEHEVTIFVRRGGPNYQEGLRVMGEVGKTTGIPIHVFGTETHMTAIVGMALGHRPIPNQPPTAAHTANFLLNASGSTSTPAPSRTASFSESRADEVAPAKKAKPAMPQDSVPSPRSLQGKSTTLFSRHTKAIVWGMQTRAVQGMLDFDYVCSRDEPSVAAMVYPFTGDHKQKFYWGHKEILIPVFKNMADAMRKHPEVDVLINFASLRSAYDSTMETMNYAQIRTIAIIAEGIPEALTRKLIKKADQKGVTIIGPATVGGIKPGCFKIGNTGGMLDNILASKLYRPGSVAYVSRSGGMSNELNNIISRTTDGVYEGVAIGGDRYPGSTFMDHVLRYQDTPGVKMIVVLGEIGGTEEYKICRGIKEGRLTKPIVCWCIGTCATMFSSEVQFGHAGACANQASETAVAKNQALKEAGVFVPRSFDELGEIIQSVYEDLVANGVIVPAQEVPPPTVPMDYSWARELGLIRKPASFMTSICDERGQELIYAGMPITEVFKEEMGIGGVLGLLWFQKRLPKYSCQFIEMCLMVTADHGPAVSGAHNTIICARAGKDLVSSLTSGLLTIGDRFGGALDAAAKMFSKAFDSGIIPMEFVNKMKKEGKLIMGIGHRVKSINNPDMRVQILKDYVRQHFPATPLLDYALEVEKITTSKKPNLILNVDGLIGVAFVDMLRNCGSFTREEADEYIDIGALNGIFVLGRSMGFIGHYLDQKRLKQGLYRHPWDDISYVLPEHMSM

[4] = in vivo
[5] = daily doses of about 20 g of creatine for 5-7 days; cited from earlier work

| Compound | bioavailability [1] | stability [2] | also measured |
| --- | --- | --- | --- |
| CN(CC(=O)O)C(=N)N.CN(CC(=O)O)C(=N)N.O.O=C(O)CC(O)(C(=O)O)C(O)C(=O)[O-].[K+] (stereo not shown) [Dicreatine (mono) potassium hydroxycitrate monohydrate] | bioavailable | stable | – |
| O=C(O)CC(O)(C(=O)O)C(O)C(=O)O (stereo not shown) [Hydroxycitric acid] | – | – | activity of ATP citrate lyase [3]: inhibit |
| CN(CC(=O)O)C(=N)N.O.O=C([O-])CC(O)(C(=O)[O-])C(O)C(=O)O.[K+].[K+] (stereo not shown) [(Mono)-creatine dipotassium hydroxycitrate monohydrate] | – | – | bioavailability [4]: bioavailable |
| CN(CC(=O)O)C(=N)N [creatine] | – | – | increase of total creatine content in the muscle [5]: 10-25% |
| Tricreatine hydroxycitrate monohydrate | bioavailable | stable | – |
